# Data from PMC9572513, “Novel Unsymmetric 3,5-Bis(benzylidene)-4-piperidones That Display Tumor-Selective Toxicity” (Molecules, 2022).
# Where two headings read alike, the source gives them in different places.
# Tests used:
# [1] = tested on: Ca9-22, HSC-2, HSC-3, and HSC-4 squamous cell carcinoma cell lines; test: Average over Ca9-22, HSC-2, HSC-3 and HSC-4 OSCC cell lines; type: cell-based, human; conditions: for Average SI: average of SI for four OSCC cell lines; for CC50: average of four OSCC cell lines, read-out: Average CC50
# Procedure: (§1) The method for evaluating 2a–f and 3a–e against human oral squamous cell carcinoma (OSCC) cell lines (Ca9-22, HSC-2, HSC-3, HSC-4) and human non-malignant oral cells [human gingival fibroblast (HGF), human periodontal ligament fibroblast (HPLF), and human pulp cell (HPC)] have been reported previously, except the length of time of this bioassay was extended from 24 h to 48 h. In brief, different quantities of the compounds were incubated with the cells in Dulbecco’s modified eagle medium (DMEM), which was supplemented with 10% FBS and antibiotics. The cell viability was determined by the 3-(4,5-dimethylthiazol-2-yl)-2,5-diphenyl-2H-tetrazolium bromide (MTT) method as summarized previously (Figure 4).
# [2] = tested on: HSC-4 squamous cell carcinoma cells; test: MTT cytotoxicity against HSC-4 squamous cell carcinoma; type: cell-based, human; conditions: for CC50: 48 h, MTT, read-out: HSC-4 CC50; for HSC-4 SI: average CC50 HGF/HPLF/HPC divided by CC50 HSC-4
# Procedure: as §1
# HPC non-malignant cells = test: MTT cytotoxicity against human pulp cell (HPC); type: cell-based; conditions: non-malignant oral cells, 48 h
# Procedure: as §1
# [3] = tested on: Ca9-22 squamous cell carcinoma cells; test: MTT cytotoxicity against Ca9-22 squamous cell carcinoma; type: cell-based, human; conditions: for CC50: 48 h, MTT, read-out: Ca9-22 CC50; for Ca9-22 SI: average CC50 HGF/HPLF/HPC divided by CC50 Ca9-22
# Procedure: as §1
# HPLF non-malignant cells = test: MTT cytotoxicity against human periodontal ligament fibroblast (HPLF); type: cell-based; conditions: non-malignant oral cells, 48 h
# Procedure: as §1
# [4] = tested on: HSC-3 squamous cell carcinoma cells; test: MTT cytotoxicity against HSC-3 squamous cell carcinoma; type: cell-based, human; conditions: for CC50: 48 h, MTT, read-out: HSC-3 CC50; for HSC-3 SI: average CC50 HGF/HPLF/HPC divided by CC50 HSC-3
# Procedure: as §1
# [5] = tested on: HGF, HPLF, and HPC non-malignant cells; test: Average over HGF, HPLF and HPC non-malignant oral cells; type: cell-based, human; conditions: average of HGF
# Procedure: as §1
# HGF non-malignant cells = test: MTT cytotoxicity against human gingival fibroblast (HGF); type: cell-based; conditions: non-malignant oral cells, 48 h
# Procedure: as §1
# [6] = tested on: HSC-2 squamous cell carcinoma cells; test: MTT cytotoxicity against HSC-2 squamous cell carcinoma; type: cell-based, human; conditions: for CC50: 48 h, MTT, read-out: HSC-2 CC50; for HSC-2 SI: average CC50 HGF/HPLF/HPC divided by CC50 HSC-2
# Procedure: as §1
# CEM cells [7] = test: ROS production in CEM cells (carboxy-H2DCFDA, flow cytometry); type: cell-based, human; conditions: CC50 and twice the CC50 concentrations
# Procedure: (§2) Apoptosis induction in Ca9-22 cells was evaluated by cell cycle analysis and Western blot analysis as described previously (Figure 5). Briefly, for the cell cycle analysis, cells were treated for 24 h with the test samples. Cells were then fixed, digested with RNase A, stained with propidium iodide, filtered through Falcon® cell trainers (Corning Inc., Corning, NY, USA), and then subjected to cell sorting. For the Western blot, cell lysates (equivalent to 5 µg protein) were applied to SDS-polyacrylamide gel electrophoresis. A literature method was used to determine whether representative compounds led to increases in the production of ROS [29]. In brief, CEM cells were treated with the compounds overnight, then with 6-carboxy-2′,7′-dichlorodihydrofluorescein diacetate (carboxy-H2DCFDA) and the samples were processed using flow cytometry.
# Ca9-22 cells [8] = test: Cell cycle analysis in Ca9-22 cells (propidium iodide); type: cell-based, human; conditions: dose-response 0.625-10 μM, 24 h
# Procedure: Apoptosis induction in Ca9-22 cells was evaluated by cell cycle analysis and Western blot analysis as described previously [25, 28] […] Briefly, for the cell cycle analysis, cells were treated for 24 h with the test samples. Cells were then fixed, digested with RNase A, stained with propidium iodide, filtered through Falcon® cell trainers (Corning Inc., Corning, NY, USA), and then subjected to cell sorting.
# CEM cells [9] = test: Mitochondrial membrane potential in CEM cells (JC-1, flow cytometry); type: cell-based, human; conditions: 7 h
# Procedure: The effect on the mitochondrial membrane potential in CEM cells was undertaken using a published method. In brief, the cells were incubated with different compounds for 7 h. The cells were then stained with the JC-1 dye, and the samples were examined by flow cytometry. The results are portrayed in Figure 6C.
# CEM cells [10] = test: Annexin V-FITC apoptosis assay in CEM cells; type: cell-based, human; conditions: CC50 and twice the CC50 concentrations, 24 h
# Procedure: In order to discover if representative compounds induce apoptosis, the annexin V-FITC assay was used. In brief, CEM cells were treated with various compounds for 24 h. The cells were collected and stained with propidium iodide and annexin V-FITC.
# [11] = MTT cytotoxicity against human pulp cell (HPC); type: cell-based; conditions: human, human pulp cells (HPC), non-malignant oral cells
# Procedure: as §1
# [12] = tested on: CRL1790 non-malignant colon cells; test: Cytotoxicity against CRL1790 non-malignant colon cells; type: cell-based; conditions: Homo sapiens, 48 h
# Procedure: (§3) The culture medium was supplemented with 10% heat-inactivated fetal bovine serum (FBS) and 1% penicillin–streptomycin antibiotics. The time of the bioassays was 48 h. The determinations were undertaken in triplicate on three different occasions.
# HL-60 cells = test: Differential DNA staining (DNS) cytotoxicity assay, HL-60 cells; type: cell-based; conditions: Homo sapiens
# Procedure: (§4) The method used for generating the data of human acute lymphocytic leukemia (CEM) and human acute promyelocytic leukemia (HL-60) cells in Table 4 has been described previously. In brief, the cells were cultured in media supplemented with 10% FBS and antibiotics. […] The CC50 values of the compounds listed in Table 4 were obtained by linear interpolation equations [28, 29].
# [13] = tested on: HCT116 and HT29 colon cancer cells; test: Average over HCT116 and HT29 colon cancer cells; type: cell-based, human
# Procedure: as §3
# Ca9-22 cells [14] = test: Western blot for caspase 3 activation in Ca9-22 cells; type: cell-based, human; conditions: 3 μM, 24 h
# Procedure: as §2
# [15] = MTT cytotoxicity against human periodontal ligament fibroblast (HPLF); type: cell-based; conditions: human, human periodontal ligament fibroblasts (HPLF), non-malignant oral cells
# Procedure: as §1
# [16] = Average over HGF, HPLF and HPC non-malignant oral cells; type: cell-based, human; conditions: human, HPLF and HPC non-malignant oral cells (average), average of HGF
# Procedure: as §1
# CEM cells [17] = test: Differential DNA staining (DNS) cytotoxicity assay, CEM cells; type: cell-based; conditions: Homo sapiens, CCRF-CEM
# Procedure: as §4
# [18] = MTT cytotoxicity against human gingival fibroblast (HGF); type: cell-based; conditions: human, human gingival fibroblasts (HGF), non-malignant oral cells
# Procedure: as §1
smiles,measurement,setting,value
"[NH2][Pt]([NH2])([Cl])[Cl] [CDDP, cisplatin, reference compound]",Average SI,[1],>11.1
same,CC50,[1],131 µM
same,CC50,[2],60.4 µM
same,HSC-4 SI,[2],>16.6
same,CC50,HPC non-malignant cells,> 1000 µM
same,CC50,[3],212 µM
same,Ca9-22 SI,[3],>4.72
same,CC50,HPLF non-malignant cells,> 1000 µM
same,CC50,[4],46.9 µM
same,HSC-3 SI,[4],>21.3
same,CC50,[5],> 1000 µM
same,CC50,HGF non-malignant cells,> 1000 µM
same,CC50,[6],204 µM
same,HSC-2 SI,[6],>4.90
"CCN(CC)Cc1cc(C=C2CNCC(=Cc3ccc(OC)c(OC)c3)C2=O)ccc1O.Cl.Cl [Compound 2b, 3-(3-Diethylaminomethyl-4-hydroxybenzylidene)-5-(3,4-dimethoxybenzylidene)-4-piperidone dihydrochloride]",CC50,[1]; Homo sapiens,< 1 µM
same,Average SI,[1],8.27
same,CC50,[1],0.9 µM
same,ROS generation,CEM cells [7],generate ROS
same,optimal concentration for the subG1 population,Ca9-22 cells [8],2.5 µM
same,depolarization of the mitochondrial membrane potential,CEM cells [9],induced
same,CC50,"[2]; Homo sapiens, HSC-4",1.16 µM
same,HSC-4 SI,[2],6.06
same,apoptotic cells,CEM cells [10],approximately 30%
same,CC50 at 48 h,[11],2.3 µM
same,IC50,[12],15.2 ± 0.15 µM
same,CC50,"HL-60 cells; HL-60, 24 h, read-out: CC50 HL-60 Cells 24 h",7.75 ± 0.26 µM
same,CC50,"HL-60 cells; HL-60, 48 h, read-out: CC50 HL-60 Cells 48 h",4.82 ± 0.91 µM
same,CC50,"[3]; Homo sapiens, Ca9-22",0.65 µM
same,Ca9-22 SI,[3],10.8
same,IC50,"[13]; Homo sapiens, average of HCT116 and HT29, unit printed only for the single cell-line columns",0.25 µM
same,Average SI,[13]; average of SI for HCT116 and HT29,64.2
same,PSE (potency-selectivity expression),"[13]; reciprocal of average IC50 x average SI x 100, colon cells","25,680"
same,caspase 3 activation (cleavage of PARP and procaspase),Ca9-22 cells [14],induced
same,CC50 at 48 h,[15],5.5 µM
same,CC50,"[4]; Homo sapiens, HSC-3",0.76 µM
same,HSC-3 SI,[4],9.25
same,CC50 at 48 h,[16],7.03 µM
same,CC50,"CEM cells [17]; 24 h, read-out: CC50 CEM Cells 24 h",0.63 ± 0.08 µM
same,CC50,"CEM cells [17]; 48 h, read-out: CC50 CEM Cells 48 h",0.82 ± 0.03 µM
same,CC50 at 48 h,[18],13.3 µM
same,CC50,"[6]; Homo sapiens, HSC-2",1.01 µM
same,HSC-2 SI,[6],6.96
